Source: patent US12077503B2, “Substituted cyclic amides and their use as herbicides” (FMC CORPORATION, priority 2015, dated 2024)

Experiments:
Type in all cases: in vivo
Kochia (Kochia scoparia) [1] = test: Test A preemergence; conditions: for Plant response rating, Kochia: 125 g ai/ha; for Kochia plant response rating (0 to 100 scale, 0 is no effect, 100 is complete control): 500 g ai/ha, visual injury approx. 10 d
In short: (§1)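 Greenhouse, ~10 d after spray; visual injury vs untreated controls, 0 = no effect, 100 = complete control. Preemergence: directed soil spray over planted seeds. Postemergence: plants 2–10 cm, 1–2 leaf stage. Loam/sand blend. Compound in non-phytotoxic solvent with surfactant.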

[2] = system: barnyardgrass (Echinochloa crus-galli); test: Test A preemergence; conditions: for Plant response rating, Barnyardgrass: 125 g ai/ha; for Barnyardgrass plant response rating (0 to 100 scale, 0 is no effect, 100 is complete control): 500 g ai/ha, visual injury approx. 10 d
In short: as §1

[3] = system: giant foxtail (Setaria faberii); test: Test A preemergence; conditions: for Plant response rating, Foxtail, Giant: 125 g ai/ha; for Foxtail, Giant plant response rating (0 to 100 scale, 0 is no effect, 100 is complete control): 500 g ai/ha, visual injury approx. 10 d
In short: as §1

[4] = system: pigweed (Amaranthus retroflexus); test: Test A preemergence; conditions: for Plant response rating, Pigweed: 125 g ai/ha; for Pigweed plant response rating (0 to 100 scale, 0 is no effect, 100 is complete control): 500 g ai/ha, visual injury approx. 10 d
[5] = system: ragweed (common ragweed, Ambrosia elatior); test: Test A preemergence; conditions: for Plant response rating, Ragweed: 125 g ai/ha; for Ragweed plant response rating (0 to 100 scale, 0 is no effect, 100 is complete control): 500 g ai/ha, visual injury approx. 10 d
In short: as §1

[6] = system: ryegrass, Italian (Italian ryegrass, Lolium multiflorum); test: Test A preemergence; conditions: for Plant response rating, Ryegrass, Italian: 125 g ai/ha; for Ryegrass, Italian plant response rating (0 to 100 scale, 0 is no effect, 100 is complete control): 500 g ai/ha, visual injury approx. 10 d
In short: as §1

[7] = system: Galium (catchweed bedstraw, Galium aparine); test: Test A postemergence; conditions: for Galium plant response rating: visual injury rating on 0 to 100 scale (0 no effect, 100 complete control), approx. 10 d
In short: as §1

Kochia (Kochia scoparia) [8] = test: Test A postemergence; conditions: for Kochia plant response rating: visual injury rating on 0 to 100 scale (0 no effect, 100 complete control), approx. 10 d
In short: as §1

[9] = system: barnyardgrass (Echinochloa crus-galli); test: Test A postemergence; conditions: for Barnyardgrass plant response rating: visual injury rating on 0 to 100 scale (0 no effect, 100 complete control), approx. 10 d
In short: as §1

[10] = system: blackgrass (Alopecurus myosuroides); test: Test A postemergence; conditions: for Blackgrass plant response rating: visual injury rating on 0 to 100 scale (0 no effect, 100 complete control), approx. 10 d
In short: as §1

corn (Zea mays) = test: Test A postemergence; conditions: for Corn plant response rating: visual injury rating on 0 to 100 scale (0 no effect, 100 complete control), approx. 10 d
In short: as §1

[11] = system: giant foxtail (Setaria faberii); test: Test A postemergence; conditions: for Foxtail, Giant plant response rating: visual injury rating on 0 to 100 scale (0 no effect, 100 complete control), approx. 10 d
In short: as §1

[12] = system: pigweed (Amaranthus retroflexus); test: Test A postemergence; conditions: for Pigweed plant response rating: visual injury rating on 0 to 100 scale (0 no effect, 100 complete control), approx. 10 d
In short: as §1

[13] = system: ragweed (common ragweed, Ambrosia elatior); test: Test A postemergence; conditions: for Ragweed plant response rating: visual injury rating on 0 to 100 scale (0 no effect, 100 complete control), approx. 10 d
In short: as §1

[14] = system: ryegrass, Italian (Italian ryegrass, Lolium multiflorum); test: Test A postemergence; conditions: for Ryegrass, Italian plant response rating: visual injury rating on 0 to 100 scale (0 no effect, 100 complete control), approx. 10 d
In short: as §1

[15] = system: wheat (Triticum aestivum); test: Test A postemergence; conditions: for Wheat plant response rating: visual injury rating on 0 to 100 scale (0 no effect, 100 complete control), approx. 10 d
In short: as §1

[16] = system: barnyardgrass (Echinochloa crus-galli); test: Test B flooded paddy test; conditions: Flood, 250 g ai/ha; 0 to 100 scale where 0 is no effect and 100 is complete control; 13 to 15 d
In short: (§2)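 Plants at 2-leaf stage flooded to 3 cm above soil, with compounds applied directly to paddy water and that depth maintained. Plants kept in greenhouse 13–15 d. Visual rating versus controls on a 0 (no effect) to 100 (complete control) scale.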

[17] = system: ducksalad (Heteranthera limosa); test: Test B flooded paddy test; conditions: Flood, 250 g ai/ha; 0 to 100 scale where 0 is no effect and 100 is complete control; 13 to 15 d
In short: as §2

rice (Oryra sativa) = test: Test B flooded paddy test; conditions: Flood, 250 g ai/ha; 0 to 100 scale where 0 is no effect and 100 is complete control; 13 to 15 d
In short: as §2

[18] = system: sedge, umbrella (small-flower umbrella sedge, Cyperus difformis); test: Test B flooded paddy test; conditions: Flood, 250 g ai/ha; 0 to 100 scale where 0 is no effect and 100 is complete control; 13 to 15 d
In short: as §2

[19] = preemergence, 0 to 100 scale (0 no effect, 100 complete control)
[20] = 500 g ai/ha, postemergence, 0 to 100 scale, 0 no effect, 100 complete control
[21] = Preemergence, visual injury after approximately 10 d, 0 to 100 scale where 0 is no effect and 100 is complete control
[22] = 125 g ai/ha, postemergence, visual rating after approx. 10 d, 0 to 100 scale (0 no effect, 100 complete control)
[23] = Postemergence, 500 g ai/ha, 0 to 100 scale where 0 is no effect and 100 is complete control

CN1CC(c2ccc(Cl)cc2)C(C(=O)Nc2ccc(F)cc2F)C1=O (stereo not drawn) [Compound 436]
30: Blackgrass plant response rating ([10]; 125 g ai/ha, postemergence)
70: Plant response rating, Kochia (Kochia (Kochia scoparia) [1]; [19]) | Plant response rating, Kochia (Kochia (Kochia scoparia) [8]; [20])
0: Plant response rating, Ragweed [5, 19] | Corn plant response rating (corn (Zea mays); 125 g ai/ha, postemergence) | Ragweed plant response rating ([13]; 125 g ai/ha, postemergence) | Plant response rating, Rice (rice (Oryra sativa)) | Plant response rating, Sedge, Umbrella [18]
20: Pigweed plant response rating ([12]; 125 g ai/ha, postemergence) | Plant response rating, Ragweed [13, 20] | Ryegrass, Italian plant response rating ([14]; 125 g ai/ha, postemergence) | Wheat plant response rating ([15]; 125 g ai/ha, postemergence)
100: Barnyardgrass plant response rating (0 to 100 scale, 0 is no effect, 100 is complete control) ([2]; Preemergence) | Foxtail, Giant plant response rating (0 to 100 scale, 0 is no effect, 100 is complete control) ([3]; Preemergence) | Plant response rating, Ducksalad [17]
40: Plant response rating, Ryegrass, Italian [6, 19] | Kochia plant response rating (Kochia (Kochia scoparia) [8]; 125 g ai/ha, postemergence) | Plant response rating, Blackgrass [10, 20] | Plant response rating, Corn (corn (Zea mays); [20]) | Plant response rating, Wheat [15, 20]
60: Ryegrass, Italian plant response rating (0 to 100 scale, 0 is no effect, 100 is complete control) ([6]; Preemergence) | Galium plant response rating ([7]; 125 g ai/ha, postemergence) | Plant response rating, Galium [7, 20] | Plant response rating, Pigweed [12, 20] | Plant response rating, Barnyardgrass [16]
50: Ragweed plant response rating (0 to 100 scale, 0 is no effect, 100 is complete control) ([5]; Preemergence) | Plant response rating, Ryegrass, Italian [14, 20]
90: Plant response rating, Barnyardgrass [2, 19] | Plant response rating, Foxtail, Giant [3, 19] | Pigweed plant response rating (0 to 100 scale, 0 is no effect, 100 is complete control) ([4]; Preemergence) | Barnyardgrass plant response rating ([9]; 125 g ai/ha, postemergence) | Plant response rating, Barnyardgrass [9, 20] | Plant response rating, Foxtail, Giant [11, 20]
80: Kochia plant response rating (0 to 100 scale, 0 is no effect, 100 is complete control) (Kochia (Kochia scoparia) [1]; Preemergence) | Plant response rating, Pigweed [4, 19] | Foxtail, Giant plant response rating ([11]; 125 g ai/ha, postemergence)

Cc1cc(C2CNC(=O)C2C(=O)Nc2ccc(F)c(F)c2F)ccc1F (stereo not drawn) [Compound 401]
60: Plant response rating, Galium [7, 20] | Plant response rating, Kochia (Kochia (Kochia scoparia) [8]; [20]) | Plant response rating, Ryegrass, Italian [14, 20]
80: Kochia plant response rating (0 to 100 scale, 0 is no effect, 100 is complete control) (Kochia (Kochia scoparia) [1]; Preemergence) | Plant response rating, Foxtail, Giant [3, 19]
100: Plant response rating, Ducksalad [17]
70: Plant response rating, Foxtail, Giant [11, 20] | Plant response rating, Wheat [15, 20] | Plant response rating, Barnyardgrass [16]
25: Plant response rating, Rice (rice (Oryra sativa))
50: Plant response rating, Kochia (Kochia (Kochia scoparia) [1]; [19]) | Pigweed plant response rating (0 to 100 scale, 0 is no effect, 100 is complete control) ([4]; Preemergence) | Ragweed plant response rating (0 to 100 scale, 0 is no effect, 100 is complete control) ([5]; Preemergence) | Galium plant response rating ([7]; 125 g ai/ha, postemergence) | Kochia plant response rating (Kochia (Kochia scoparia) [8]; 125 g ai/ha, postemergence) | Plant response rating, Blackgrass [10, 20] | Plant response rating, Ragweed [13, 20]
20: Plant response rating, Pigweed [4, 19] | Wheat plant response rating ([15]; 125 g ai/ha, postemergence)
90: Plant response rating, Barnyardgrass [2, 19] | Barnyardgrass plant response rating (0 to 100 scale, 0 is no effect, 100 is complete control) ([2]; Preemergence) | Foxtail, Giant plant response rating (0 to 100 scale, 0 is no effect, 100 is complete control) ([3]; Preemergence) | Barnyardgrass plant response rating ([9]; 125 g ai/ha, postemergence) | Plant response rating, Barnyardgrass [9, 20]
0: Plant response rating, Ragweed [5, 19] | Plant response rating, Ryegrass, Italian [6, 19] | Blackgrass plant response rating ([10]; 125 g ai/ha, postemergence) | Corn plant response rating (corn (Zea mays); 125 g ai/ha, postemergence) | Pigweed plant response rating ([12]; 125 g ai/ha, postemergence) | Plant response rating, Sedge, Umbrella [18]
40: Ryegrass, Italian plant response rating (0 to 100 scale, 0 is no effect, 100 is complete control) ([6]; Preemergence) | Plant response rating, Corn (corn (Zea mays); [20]) | Plant response rating, Pigweed [12, 20]
30: Foxtail, Giant plant response rating ([11]; 125 g ai/ha, postemergence) | Ragweed plant response rating ([13]; 125 g ai/ha, postemergence) | Ryegrass, Italian plant response rating ([14]; 125 g ai/ha, postemergence)

O=C1NCC(c2cc(F)ccc2F)C1C(=O)Nc1cccc(F)c1F (racemic) [Compound 546]
80: Plant response rating, Barnyardgrass [2, 21] | Plant response rating, Barnyardgrass [9, 22]
90: Barnyardgrass plant response rating (0 to 100 scale, 0 is no effect, 100 is complete control) ([2]; Preemergence) | Plant response rating, Foxtail, Giant [3, 21] | Foxtail, Giant plant response rating (0 to 100 scale, 0 is no effect, 100 is complete control) ([3]; Preemergence) | Plant response rating, Barnyardgrass [9, 23] | Plant response rating, Foxtail, Giant [11, 23]
0: Plant response rating, Kochia (Kochia (Kochia scoparia) [1]; [21]) | Kochia plant response rating (0 to 100 scale, 0 is no effect, 100 is complete control) (Kochia (Kochia scoparia) [1]; Preemergence) | Plant response rating, Pigweed [4, 21] | Pigweed plant response rating (0 to 100 scale, 0 is no effect, 100 is complete control) ([4]; Preemergence) | Plant response rating, Ragweed [5, 21] | Ragweed plant response rating (0 to 100 scale, 0 is no effect, 100 is complete control) ([5]; Preemergence) | Plant response rating, Ryegrass, Italian [6, 21] | Ryegrass, Italian plant response rating (0 to 100 scale, 0 is no effect, 100 is complete control) ([6]; Preemergence) | Plant response rating, Galium [7, 22] | Plant response rating, Galium [7, 23] | Plant response rating, Kochia (Kochia (Kochia scoparia) [8]; [22]) | Plant response rating, Kochia (Kochia (Kochia scoparia) [8]; [23]) | Plant response rating, Blackgrass [10, 22] | Plant response rating, Corn (corn (Zea mays); [22]) | Plant response rating, Pigweed [12, 22] | Plant response rating, Pigweed [12, 23] | Plant response rating, Ragweed [13, 22] | Plant response rating, Ragweed [13, 23] | Plant response rating, Ryegrass, Italian [14, 22] | Plant response rating, Ryegrass, Italian [14, 23] | Plant response rating, Wheat [15, 22] | Plant response rating, Wheat [15, 23] | Plant response rating, Sedge, Umbrella [18]
85: Plant response rating, Ducksalad [17]
20: Plant response rating, Blackgrass [10, 23] | Plant response rating, Corn (corn (Zea mays); [23]) | Plant response rating, Rice (rice (Oryra sativa))
70: Plant response rating, Foxtail, Giant [11, 22] | Plant response rating, Barnyardgrass [16]
